Drawing on ChEMBL document CHEMBL1143926, “Synthesis of novel analogues of (+)-varitriol via olefin cross-metathesis reaction” (Bioorg Med Chem Lett, 2008), this text covers Activity and GI50 for eight compounds.

One data set has as its system A549. Nature of the data set: Cytotoxicity against human A549 cells after 24 hrs by MTT assay. The format is functional, cell-based.
A further data set concerns HT-29. Put plainly: Cytotoxicity against human HT29 cells after 24 hrs by MTT assay. It counts as functional. A general note: Tetrazolium assays rely on reduction of a dye to a coloured formazan, in cell work by metabolically active cells.
A short description of data set [1]: Cytotoxicity against mouse RAW2647 cells after 24 hrs by MTT assay. The format is cell-based, RAW264.7. Conditions: for GI50 at 24 h: RAW2647 cells; for Activity: raw264.7, 24 h.
Another data set has as its system SNB-75. Put plainly: Cytotoxicity against human SNB75 cells. The format is functional.
The next data set has as its system DU-145. Put plainly: Cytotoxicity against human DU145 cells. It counts as functional.
Another data set has as its system RXF 393. Nature of the data set: Cytotoxicity against human RXF393 cells. It counts as functional.
The next data set relates to OVCAR-5. Put plainly: Cytotoxicity against human OVCAR5 cells. The format is functional.
For a further data set, the system named is T47D. Nature of the data set: Cytotoxicity against human T47D cells. The format is functional.
A further data set deals with CCRF-CEM. Nature of the data set: Cytotoxicity against human CCRF-CEM cells. The format is functional.
Another data set relates to SNB-19. Nature of the data set: Cytotoxicity against human SNB19 cells. The format is functional.
A further data set concerns HL-60. Nature of the data set: Cytotoxicity against human HL60 cells. The format is functional.
In a further data set the test system is COLO 205. Nature of the data set: Cytotoxicity against human COLO205 cells. It counts as functional.

Calls of active or inactive are those of the source. The calls are words filed in the database; no cut-off is given here.

In general, GI50 refers to the concentration that inhibits growth by half. A lower GI50 goes with greater sensitivity of the cells. `COc1cc(/C=C/[C@H]2OC(OC)[C@@H]3OC(C)(C)O[C@H]23)ccc1O` (stereo not given in full): in the data set with A549, the result was inactive. Also, in the data set on HT-29, the GI50 was 13.2 10^-4 M. The same compound showed a GI50 at 24 h in [1] of 835 µM.

For `COc1cc(/C=C/[C@H]2OC(OC)[C@@H]3OC(C)(C)O[C@H]23)cc2c1OCO2` (stereo not given in full), in the data set on A549, the outcome was inactive. In the data set with HT-29, the GI50 is 14 10^-4 M. Moreover, the GI50 at 24 h in data set [1] came out at 462 µM.

For `COc1cc(/C=C/[C@H]2O[C@@H]3OC(C)(C)O[C@@H]3[C@H]2O)cc(OC)c1`, the outcome in the data set on A549 was inactive. Further, the concentration for 50% growth inhibition (GI50) in the data set on HT-29 was 20 10^-4 M. Also, the Activity entry in [1] is “Not Active”.

Consider `COc1ccc(/C=C/[C@H]2OC(OC)[C@@H]3OC(C)(C)O[C@H]23)cc1` (stereo not given in full), for which, in the data set on A549, the result was inactive. The 50% growth inhibitory concentration (GI50) with HT-29 was 4.7 10^-4 M. In data set [1], this compound showed a 50% growth inhibitory concentration (GI50) at 24 h of 696 µM.

As for `COc1cccc(/C=C/[C@H]2OC(OC)[C@@H]3OC(C)(C)O[C@H]23)c1` (stereo not given in full), the result in the data set on A549 and in the data set on HT-29 was inactive. Besides, the Activity entry in data set [1] is “Not Active”.

As for `COc1cccc(/C=C/[C@H]2O[C@@H]3OC(C)(C)O[C@@H]3[C@H]2O)c1`, the result in the data set on A549 was inactive. The GI50 in the data set with HT-29 is 17.5 10^-4 M. The compound further gave a GI50 at 24 h in data set [1] of 671 µM.

`COc1cccc(/C=C/C2OC(C)C(O)C2O)c1CO` (racemic) [(+/-)-VARITRIOL]: the concentration for 50% growth inhibition (GI50) with SNB-75 was determined as 0.244 µM; with DU-145, 1.1 µM; in the data set on RXF 393 it was 0.163 µM; with OVCAR-5, 68.2 µM; in the data set with T47D it was 0.21 µM; in the data set with CCRF-CEM, 26 µM. Besides, the figures for the GI50 in the data set with SNB-19, in the data set on HL-60 and in the data set on COLO 205 were 91.3 µM, 25.2 µM and 95.9 µM, respectively.

As for `COc1cc(/C=C/[C@H]2OC(OC)[C@@H]3OC(C)(C)O[C@H]23)cc(OC)c1` (stereo not given in full), the result with A549 and in the data set with HT-29 was inactive. The compound further returned a 50% growth inhibitory concentration (GI50) at 24 h in [1] of 541 µM.
